Data from patent US5596002A, “Method of treating chloroquine-resistant malaria with aminoquinoline derivatives” (Hoffmann-La Roche Inc., priority 1993, dated 1997).
≈ marks a conversion by molar mass, not a printed value. Where two headings read alike, the source gives them in different places.

Key:
[1] = system: Plasmodium falciparum, chloroquine-sensitive strain Ro7 3; test: activity against P. falciparum in vitro, strain Ro7 3; type: cell-based; settings: read-out: IC50 (50% growth inhibition)
Method in brief: (§1)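 Asynchronous intraerythrocytic cultures (0.7% parasitemia, 2.5% human A+ erythrocytes) were grown in RPMI 1640 with HEPES, NaHCO3 and 10% human serum, at 37 °C under 3% O2, 4% CO2. Cultures were exposed to DMSO-dissolved compound titrated over 6-7 steps for 48–72 h. Growth was read by [G-3H]-hypoxanthine incorporation versus untreated controls, with IC50 obtained by logit regression.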

[2] = system: Plasmodium falciparum, chloroquine-resistant strain ItG2 F6; test: activity against P. falciparum in vitro, strain ItG2 F6; type: cell-based; settings: read-out: IC50 (50% growth inhibition)
Method in brief: as §1

[3] = system: Plasmodium falciparum, chloroquine-sensitive strain NF54; test: activity against P. falciparum in vitro, strain NF54; type: cell-based; settings: Plasmodium falciparum, read-out: IC50 (50% growth inhibition)
Method in brief: as §1

[4] = system: Plasmodium falciparum, chloroquine-resistant strain Indo; test: activity against P. falciparum in vitro, strain Indo; type: cell-based; settings: read-out: IC50 (50% growth inhibition)
Method in brief: as §1

[5] = system: Plasmodium berghei (strain ANKA); test: activity against Plasmodium berghei in vivo (infected mice); settings: for ED50: read-out: ED50 (po)
Experimental: Test method for the determination of the activity against Plasmodium berghei in vivo
The preparations according to the present invention were tested on mice infected with malaria pathogens (Plasmodium berghei). Male albino mice (IBM:MORO(SPF), FUELLINSDORF) weighing about 25 g were used as the test animals. They were kept in climatized rooms at 21°-22° C. in groups of 5 animals per cage. They received ad libitum a diet feed with a low PABA content ("NAFAG FUTTER" No. 9009 PAB-45, PABA content 45 mg/kg) and drinking water. On the first day of the test (D0) the test animals were infected with Plasmodium berghei (strain ANKA). For this there was used heparinized blood of a donor mouse with about 30% parasitemia, which was diluted with physiological saline such that it contains 10^8 parasitized erythrocytes per ml. 0.2 ml of this suspension was injected intravenously (i.v.) into the mice to be treated and into the control mice. In untreated control animals the parasitemia normally reaches 30-40% on the third day after the infection (D+3) and the test animals die between days +5 and +7.
The substances to be tested were dissolved or suspended in distilled water or in a mixture of 7% Tween 80, 3% alcohol (96%) and water. Usually, 0.25 ml of this solution or suspension was administered once subcutaneously and perorally to groups of 5 test animals. Treatment was effected 24 hours after the infection. 10 control animals were treated in the same manner with solvent or suspension medium per test.
All substances were tested in a first test in a single dosage of 10 mg/kg. Only those substances which in this test (10 mg/kg) had shown a parasitaemia reduction of 90% were used for the titration.
48 hours after the treatment (D+3), blood smears were prepared from all animals using blood from tail veins and were stained with Giemsa. The average erythrocyte infection rate (parasitemia in %) in the control groups as well as in the groups which had been treated with the test compounds was determined by counting under a microscope. The difference in the average values of the infection rates of control group (100%) and treated groups was calculated and expressed as a percentage reduction (GI %). The ED50 or ED90 was determined mathematically by means of the JMP programme (nonlinear fit). The ED50 (ED90) in mg/kg is that dose which after single administration reduces the average erythrocyte infection rate by 50% (90%) in comparison to the control group.
Table 2 below contains data with respect to the activity measured against Plasmodium berghei in mice: GI % is the percentage reduction in the parasitemia after a single dose of 10 mg/kg of the test substance administered perorally (po) or subcutaneously (sc); ED50 and ED90 are the effective doses of the test substance administered perorally or subcutaneously.

[6] = system: Plasmodium falciparum, chloroquine-resistant strain 7G8; test: activity against P. falciparum in vitro, strain 7G8; type: cell-based; settings: read-out: IC50 (50% growth inhibition)
Method in brief: as §1

[7] = system: Plasmodium falciparum, chloroquine-resistant strain RFCR3; test: activity against P. falciparum in vitro, strain RFCR3; type: cell-based; settings: read-out: IC50 (50% growth inhibition)
Method in brief: as §1

[8] = system: Plasmodium falciparum, chloroquine-sensitive strain RFMEF3; test: activity against P. falciparum in vitro, strain RFMEF3; type: cell-based; settings: read-out: IC50 (50% growth inhibition)
Method in brief: as §1

[9] = system: Plasmodium falciparum, chloroquine-resistant strain W2 Mef; test: activity against P. falciparum in vitro, strain W2 Mef; type: cell-based; settings: 48 h-72 h, read-out: IC50 (50% growth inhibition)
Method in brief: as §1

[10] = system: Plasmodium falciparum, chloroquine-resistant strain K1; test: activity against P. falciparum in vitro, strain K1; type: cell-based; settings: Plasmodium falciparum, read-out: IC50 (50% growth inhibition)
Method in brief: as §1

[11] = system: Plasmodium falciparum, chloroquine-sensitive strain FCH5C2; test: activity against P. falciparum in vitro, strain FCH5C2; type: cell-based; settings: read-out: IC50 (50% growth inhibition)
Method in brief: as §1

[12] = system: Plasmodium falciparum, chloroquine-sensitive strain HB3; test: activity against P. falciparum in vitro, strain HB3; type: cell-based; settings: read-out: IC50 (50% growth inhibition)
Method in brief: as §1

[13] = system: Plasmodium falciparum, chloroquine-resistant strain W2; test: activity against P. falciparum in vitro, strain W2; type: cell-based; settings: read-out: IC50 (50% growth inhibition)
Method in brief: as §1

[14] = chloroquine-sensitive strain Ro7 3, 48 h-72 h
[15] = chloroquine-resistant strain ItG2 F6, 48 h-72 h
[16] = chloroquine-sensitive strain NF54, 48 h-72 h
[17] = chloroquine-resistant strain Indo, 48 h-72 h
[18] = mice, single administration po, dose reducing average erythrocyte infection rate by 50%
[19] = mice, single dose 10 mg/kg po, 48 hours after treatment (D+3), read-out: GI % at 10 mg/kg (po): percentage reduction in the parasitemia
[20] = mice, single dose 10 mg/kg sc, 48 hours after treatment (D+3), read-out: GI % at 10 mg/kg (sc): percentage reduction in the parasitemia
[21] = chloroquine-resistant strain 7G8, 48 h-72 h
[22] = chloroquine-resistant strain RFCR3, 48 h-72 h
[23] = chloroquine-sensitive strain RFMEF3, 48 h-72 h
[24] = chloroquine-resistant strain K1, 48 h-72 h
[25] = chloroquine-sensitive strain FCH5C2, 48 h-72 h
[26] = chloroquine-sensitive strain HB3, 48 h-72 h
[27] = chloroquine-resistant strain W2, 48 h-72 h

SMILES	IC50 [9]	IC50 [1, 14]	IC50 [2, 15]	IC50 [3, 16]	IC50 [4, 17]	ED50 [5, 18]	inhibition in vivo at 10 mg/kg [5, 19]	inhibition in vivo at 10 mg/kg [5, 20]	IC50 [6, 21]	IC50 [7, 22]	IC50 [8, 23]	IC50 [10, 24]	IC50 [11, 25]	IC50 [12, 26]	IC50 [13, 27]	also measured
CCN(CC)CCCC(C)Nc1ccnc2cc(Cl)ccc12 (centres unmarked) [Chloroquine diphosphate, reference compound]	0.079 µg/mL															IC50 ([1]; 48 h): 8 ng/mL; IC50 ([2]; 48 h): 68 ng/mL; IC50 ([3]; NF54, 48 h): 8 ng/mL; IC50 ([4]; 48 h): 52 ng/mL; ED50 ([5]; Erythrocyte, po): 2.4 mg/kg; inhibition in vivo at 10 mg/kg ([5]; po, 48 h, read-out: GI % at 10 mg/kg (po): percentage reduction in the parasitemia): 99.9%; inhibition in vivo at 10 mg/kg ([5]; sc, 48 h, read-out: GI % at 10 mg/kg (sc): percentage reduction in the parasitemia): 99.9%; IC50 ([6]; 7G8, 48 h): 0.081 µg/mL; IC50 ([7]; 48 h): 0.13 µg/mL; IC50 ([8]; 48 h): 14 ng/mL; IC50 ([10]; K1, 48 h): 0.011 µg/mL; IC50 ([11]; 48 h): 12 ng/mL; IC50 ([12]; HB3, 48 h): 0.011 µg/mL; IC50 ([13]; W2, 48 h): 0.123 µg/mL
CN1CCCC1CNc1ccnc2cc(Cl)ccc12 (centres unmarked) [Example 12a, (7-Chloro-quinolin-4-yl)-(1-methyl-pyrrolidin-2-yl-methyl)-amine]	0.006 µg/mL (≈ 0.0218 µM)	7 ng/mL (≈ 0.0254 µM)	5 ng/mL (≈ 0.0181 µM)	7 ng/mL (≈ 0.0254 µM)	11 ng/mL (≈ 0.0399 µM)	4.8 mg/kg	91%	91%	0.008 µg/mL (≈ 0.029 µM)	0.011 µg/mL (≈ 0.0399 µM)	8 ng/mL (≈ 0.029 µM)	0.009 µg/mL (≈ 0.0326 µM)	8 ng/mL (≈ 0.029 µM)	0.01 µg/mL (≈ 0.0363 µM)	0.009 µg/mL (≈ 0.0326 µM)	
Clc1ccc2c(NCCCN3CCCCC3)ccnc2c1 [Example 18, (7-Chloro-quinolin-4-yl)-(3-piperidin-1-yl-propyl)-amine]	0.012 µg/mL (≈ 0.0395 µM)	7 ng/mL (≈ 0.023 µM)	7 ng/mL (≈ 0.023 µM)	4 ng/mL (≈ 0.0132 µM)	7 ng/mL (≈ 0.023 µM)	6.9 mg/kg	83%	96%	0.012 µg/mL (≈ 0.0395 µM)	0.008 µg/mL (≈ 0.0263 µM)	8 ng/mL (≈ 0.0263 µM)	0.014 µg/mL (≈ 0.0461 µM)	4 ng/mL (≈ 0.0132 µM)	0.008 µg/mL (≈ 0.0263 µM)	0.011 µg/mL (≈ 0.0362 µM)	
Clc1ccc2c(NC3CCN(Cc4ccccc4)CC3)ccnc2c1 [Example 19, (1-Benzyl-piperidin-4-yl)-(7-chloro-quinolin-4-yl)-amine]	0.011 µg/mL (≈ 0.0313 µM)	3 ng/mL (≈ 0.00853 µM)	6 ng/mL (≈ 0.0171 µM)	7 ng/mL (≈ 0.0199 µM)	7 ng/mL (≈ 0.0199 µM)	5.3 mg/kg	99%	99.6%	0.007 µg/mL (≈ 0.0199 µM)	0.01 µg/mL (≈ 0.0284 µM)	5 ng/mL (≈ 0.0142 µM)	0.009 µg/mL (≈ 0.0256 µM)	5 ng/mL (≈ 0.0142 µM)	0.004 µg/mL (≈ 0.0114 µM)	0.01 µg/mL (≈ 0.0284 µM)	
CC1CC(C)(C)C(CNc2ccnc3cc(Cl)ccc23)C1N (centres unmarked) [Example 20, (5-Amino-2,2,4-trimethyl-cyclopentylmethyl)-(7-chloro-quinolin-4yl)-amine]	0.014 µg/mL (≈ 0.044 µM)	7 ng/mL (≈ 0.022 µM)	7 ng/mL (≈ 0.022 µM)	3 ng/mL (≈ 0.00944 µM)	8 ng/mL (≈ 0.0252 µM)	4.4 mg/kg	99.9%	99.9%	0.015 µg/mL (≈ 0.0472 µM)	0.014 µg/mL (≈ 0.044 µM)	4 ng/mL (≈ 0.0126 µM)	0.01 µg/mL (≈ 0.0315 µM)	7 ng/mL (≈ 0.022 µM)	0.004 µg/mL (≈ 0.0126 µM)	0.011 µg/mL (≈ 0.0346 µM)	
C=CCN(C)CCNc1ccnc2cc(Cl)ccc12 [Example 33, N1 -Allyl-N2-(7-chloro-quinolin-4-yl)-N1-methyl-ethane-1,2-diamine]	0.015 µg/mL (≈ 0.0544 µM)	10 ng/mL (≈ 0.0363 µM)	9 ng/mL (≈ 0.0326 µM)	8 ng/mL (≈ 0.029 µM)	14 ng/mL (≈ 0.0508 µM)	5.9 mg/kg	97%	97%	0.018 µg/mL (≈ 0.0653 µM)	0.018 µg/mL (≈ 0.0653 µM)	16 ng/mL (≈ 0.058 µM)	0.014 µg/mL (≈ 0.0508 µM)	15 ng/mL (≈ 0.0544 µM)	0.015 µg/mL (≈ 0.0544 µM)	0.021 µg/mL (≈ 0.0761 µM)	
CN(C)C(C)(C)CNc1ccnc2cc(Cl)ccc12 [Example 33b, N1-(7-Chloro-quinolin-4-yl)-2,N2,N2-trimethyl-propane-1,2-diamine]	0.018 µg/mL (≈ 0.0648 µM)	4 ng/mL (≈ 0.0144 µM)	17 ng/mL (≈ 0.0612 µM)	8 ng/mL (≈ 0.0288 µM)	9 ng/mL (≈ 0.0324 µM)		99.9%	99.9%	0.018 µg/mL (≈ 0.0648 µM)	0.01 µg/mL (≈ 0.036 µM)	8 ng/mL (≈ 0.0288 µM)	0.017 µg/mL (≈ 0.0612 µM)	11 ng/mL (≈ 0.0396 µM)	0.012 µg/mL (≈ 0.0432 µM)	0.009 µg/mL (≈ 0.0324 µM)	
